Reference: ChEMBL document CHEMBL2069236, “Synthesis and biological evaluation of novel N-acyl substituted quinolin-2(1H)-one derivatives as potential antimicrobial agents” (2012)
In brackets after ≈: the same amount, converted by molar mass.

Key:
Format in all cases: functional
Bacillus subtilis = experiment: Antibacterial activity against Bacillus subtilis ATCC 6633 by disc diffusion method
Escherichia coli = experiment: Antibacterial activity against Escherichia coli JM 109 by disc diffusion method
Bacillus = experiment: Antibacterial activity against Bacillus proteus by disc diffusion method
Staphylococcus aureus [1] = experiment: Antibacterial activity against Staphylococcus aureus ATCC 25923 by disc diffusion method
Staphylococcus aureus [2] = experiment: Antibacterial activity against methicillin-resistant Staphylococcus aureus N 315 by disc diffusion method
Staphylococcus aureus [3] = experiment: Ratio of streptomycin MIC to compound MIC for methicillin-resistant Staphylococcus aureus N 315
Candida albicans = experiment: Antifungal activity against Candida albicans ATCC 76615 by disc diffusion method
Candida = experiment: Antifungal activity against Candida mycoderma by disc diffusion method

Structure (SMILES)	MIC (Bacillus subtilis)	MIC (Escherichia coli)	MIC (Bacillus)	MIC (Staphylococcus aureus [1])	MIC (Staphylococcus aureus [2])	Ratio (Staphylococcus aureus [3])	MIC (Candida albicans)	MIC (Candida)
Cl.O=C1CCc2c(cccc2NC(=O)CN2CCOCC2)N1	128 µg/mL	32 µg/mL	128 µg/mL	128 µg/mL	32 µg/mL	8	64 µg/mL	32 µg/mL
Cl.O=C1CCc2c(cccc2NC(=O)Cn2ccnc2)N1	32 µg/mL	64 µg/mL	64 µg/mL	16 µg/mL	64 µg/mL	8	16 µg/mL	16 µg/mL
Cl.O=C1CCc2c(cccc2NC(=O)CN(Cc2ccccc2)Cc2ccccc2)N1	32 µg/mL	64 µg/mL	32 µg/mL	128 µg/mL	128 µg/mL	–	128 µg/mL	256 µg/mL
CC(C)(C)NCC(=O)Nc1cccc2c1CCC(=O)N2.Cl	256 µg/mL	32 µg/mL	256 µg/mL	32 µg/mL	128 µg/mL	–	16 µg/mL	32 µg/mL
Cl.O=C1CCc2c(cccc2NC(=O)Cn2cnc3ccccc32)N1	128 µg/mL	32 µg/mL	256 µg/mL	16 µg/mL	32 µg/mL	8	256 µg/mL	32 µg/mL
CCCN(CCC)CC(=O)Nc1cccc2c1CCC(=O)N2.Cl	64 µg/mL	64 µg/mL	256 µg/mL	8 µg/mL	64 µg/mL	–	256 µg/mL	16 µg/mL
Cl.O=C1CCc2c(cccc2NC(=O)CN2CCNCC2)N1	64 µg/mL	128 µg/mL	16 µg/mL	64 µg/mL	32 µg/mL	8	32 µg/mL	4 µg/mL
CCN(CC)CC(=O)Nc1cccc2c1CCC(=O)N2.Cl	32 µg/mL	8 µg/mL	256 µg/mL	128 µg/mL	64 µg/mL	–	256 µg/mL	32 µg/mL
CN[C@@H]1[C@H](O[C@H]2[C@H](O[C@H]3[C@H](O)[C@@H](O)[C@H](N=C(N)N)[C@@H](O)[C@@H]3N=C(N)N)O[C@@H](C)[C@]2(O)C=O)O[C@@H](CO)[C@H](O)[C@H]1O [STREPTOMYCIN]	32 µg/mL (≈ 55 µM)	16 µg/mL (≈ 27.5 µM)	64 µg/mL (≈ 110 µM)	32 µg/mL (≈ 55 µM)	512 µg/mL (≈ 880 µM)	–	–	–
OC(Cn1cncn1)(Cn1cncn1)c1ccc(F)cc1F [FLUCONAZOLE]	–	–	–	–	–	–	4 µg/mL (≈ 13.1 µM)	8 µg/mL (≈ 26.1 µM)
CC(C)(C)OC(=O)N1CCN(CC(=O)Nc2cccc3c2CCC(=O)N3)CC1.Cl	32 µg/mL	16 µg/mL	128 µg/mL	64 µg/mL	32 µg/mL	8	128 µg/mL	32 µg/mL
Cl.O=C1CCc2c(cccc2NC(=O)CNCc2ccccc2)N1	64 µg/mL	64 µg/mL	64 µg/mL	32 µg/mL	256 µg/mL	–	32 µg/mL	32 µg/mL
Cl.O=C1CCc2c(cccc2NC(=O)CN2CCCCC2)N1	16 µg/mL	32 µg/mL	128 µg/mL	32 µg/mL	64 µg/mL	8	128 µg/mL	256 µg/mL
Cl.O=C1CCc2c(cccc2NC(=O)CN(CCO)CCO)N1	128 µg/mL	128 µg/mL	128 µg/mL	128 µg/mL	64 µg/mL	–	4 µg/mL	128 µg/mL
Cl.O=C1CCc2c(cccc2NC(=O)CN2CCCC2)N1	32 µg/mL	32 µg/mL	128 µg/mL	32 µg/mL	32 µg/mL	8	32 µg/mL	128 µg/mL
